In brackets after ≈: the same amount, converted by molar mass.
Experiments:
[1] = system: E6SM; experiment: Tested for antiviral activity against HSV-1 (KOS) in E6SM cells; format: functional; conditions: Homo sapiens
[2] = system: E6SM; experiment: Tested for antiviral activity against HSV-2 (G) in E6SM cells; format: functional; conditions: Homo sapiens
[3] = system: E6SM; experiment: Tested for antiviral activity against TK-HSV-1 (B2006) in E6SM cells; format: functional; conditions: Homo sapiens
[4] = system: E6SM; experiment: Tested for toxicity against morphology of E6SM cells; format: functional; conditions: Homo sapiens
[5] = system: HeLa; experiment: Tested for antiviral activity against respiratory syncytial (long) in HeLa cells; format: functional; conditions: Homo sapiens
[6] = system: HeLa; experiment: Tested for toxicity against morphology of HeLa cells; format: functional; conditions: Homo sapiens
[7] = system: HeLa; experiment: Tested for antiviral activity against coxsackie B4 in HeLa cells; format: functional; conditions: Homo sapiens
[8] = system: HEL; experiment: Tested for anti-HCMV activity using AD-169 and Davis strains in HEL cells; format: functional; conditions: Homo sapiens
[9] = system: HEL; experiment: Tested for effect on HEL cells growth viability for anti-HCMV activity; format: functional; conditions: Homo sapiens
[10] = system: MDCK; experiment: Tested for toxicity against morphology of MDCK cells; format: functional; conditions: Canis lupus familiaris
[11] = system: MT4; experiment: Tested for antiviral activity against HIV-1 (IIIB/LAI) in MT-4 cells; format: functional; conditions: Homo sapiens
[12] = system: MT4; experiment: Tested for antiviral activity against HIV-2 (ROD) in MT-4 cells; format: functional; conditions: Homo sapiens
[13] = system: MT4; experiment: Tested for toxicity against growth/viability of MT-4 cells; format: functional; conditions: Homo sapiens
[14] = target: Adenosylhomocysteinase (Homo sapiens, UniProt P23526); experiment: Tested for inhibitory concentration against S-adenosyl-homocysteine hydrolase
Adenosylhomocysteinase, sequence (P23526 whole entry): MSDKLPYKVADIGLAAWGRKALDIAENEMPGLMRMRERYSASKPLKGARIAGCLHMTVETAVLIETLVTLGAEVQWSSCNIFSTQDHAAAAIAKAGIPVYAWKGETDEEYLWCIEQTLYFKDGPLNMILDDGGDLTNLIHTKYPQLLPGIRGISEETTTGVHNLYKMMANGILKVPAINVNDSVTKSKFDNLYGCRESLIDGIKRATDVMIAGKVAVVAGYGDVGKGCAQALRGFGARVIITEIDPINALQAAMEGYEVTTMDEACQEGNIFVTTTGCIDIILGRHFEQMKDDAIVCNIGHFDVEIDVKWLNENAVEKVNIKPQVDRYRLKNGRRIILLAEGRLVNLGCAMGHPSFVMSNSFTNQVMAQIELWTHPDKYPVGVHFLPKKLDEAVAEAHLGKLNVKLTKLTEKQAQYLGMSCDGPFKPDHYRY

[15] = system: Vero; experiment: Tested for toxicity against morphology of vero cells; format: functional; conditions: Chlorocebus sabaeus
[16] = system: Vero; experiment: Tested for antiviral activity against Junin in vero cells; format: functional; conditions: Chlorocebus sabaeus
[17] = system: Vero; experiment: Tested for antiviral activity against forest in vero cells; format: functional; conditions: Chlorocebus sabaeus
[18] = system: Vero; experiment: Tested for antiviral activity against Sindbis in vero cells; format: functional; conditions: Chlorocebus sabaeus
[19] = system: Vero; experiment: Tested for antiviral activity against Tacaribe in vero cells; format: functional; conditions: Chlorocebus sabaeus
[20] = system: Vero; experiment: Tested for antiviral activity against coxsackie B4 in vero cells; format: functional; conditions: Chlorocebus sabaeus
[21] = system: Vero; experiment: Tested for antiviral activity against parainfluenza 3 (VR-93) in vero cells; format: functional; conditions: Chlorocebus sabaeus
[22] = system: Vero; experiment: Tested for antiviral activity against reo-1 in vero cells; format: functional; conditions: Chlorocebus sabaeus

For `Nc1ncnc2c1ccn2C1CCC(O)C1O` (stereo not given), the MIC50 [1] was greater than 200 µg/mL, the MIC50 [2] was greater than 200 µg/mL and the MIC50 [3] was greater than 200 µg/mL. It also gave an MIC50 [4] greater than 200 µg/mL, an MIC50 [5] greater than 100 µg/mL and an MIC50 [6] greater than 200 µg/mL. The MIC50 [7] was greater than 200 µg/mL, the MIC50 [8] was 18 µg/mL (≈ 76.8 µM) and the MIC50 [9] was 130 µg/mL (≈ 555 µM). The MIC50 [10] was greater than 100 µg/mL, the MIC50 [11] was greater than 130 µg/mL and the MIC50 [12] was greater than 130 µg/mL. The MIC50 [13] was greater than 130 µg/mL, the IC50 [14] was greater than 100000 nM and the MIC50 [15] was greater than 200 µg/mL. It also gave an MIC50 [16] of 84 µg/mL (≈ 359 µM), an MIC50 [17] greater than 200 µg/mL and an MIC50 [18] greater than 200 µg/mL. The MIC50 [19] was 64 µg/mL (≈ 273 µM), the MIC50 [20] was greater than 200 µg/mL and the MIC50 [21] was 150 µg/mL (≈ 640 µM). The MIC50 [22] was greater than 200 µg/mL.
Work on `Nc1ccnc2c1ncn2[C@@H]1C[C@H](CO)[C@@H](O)[C@H]1O` yielded an IC50 [14] of 18 nM.
In the case of `Nc1ncnc2c1ncn2C[C@H](O)CO` [(S)-DHPA], the IC50 [14] is reported as 280 nM.
With `Nc1ncnc2c1ncn2[C@@H]1C=C(CO)[C@@H](O)[C@H]1O` [NEOPLANOCIN A] the IC50 [14] was 7.2 nM.
